Assay results as given in US12023348B2, “EGR1 targeting molecules for the treatment of inflammatory and hyperproliferative conditions” (The Medical Research, Infrastructure and Health Services …, priority 2015, dated 2024).
Counter-ions that a name gives are not always drawn.

Tests used:
Type in all cases: cell-based, human
SAMD9 promoter [1] = experiment: Dual luciferase reporter assay in HeLa cells transiently transfected with SAMD9 promoter construct; settings: transient transfection, IFN-γ 10 ng/ml, 48 hours after transfection (FIG. 1A)
Text: SAMD9 promoter fragments cloned into pGL3 as previously described [Hershkovitz, D. et al. (2011) J Invest Dermatol 131: 662-9], were digested with KpnI and XhoI and subcloned into pGL4.17 [luc2/Neo] (Promega). The expression vector pGL4.17 encodes the luciferase reporter gene luc2 (Photinuspyralis) and contains a mammalian selectable marker for neomycin resistance. For transient transfection, SAMD9 promoter-luciferase constructs were transfected into HeLa cells using lipofectamine 2000 (Invitrogen, Carlsbad, CA) according to the manufacturer's instructions.
Cellular protein was extracted by adding 20 μl of Promega Lysis Buffer (PLB) (Promega) to each sample and incubated for a period of 15 minutes. Cell lysate was analyzed in a 96-well flat white plate (Greiner Bio-One, United Kingdom) where 100 μl of Luciferase Assay Reagent II (LAR II) (Promega) was added to each sample. Luminescence was ascertained using the Infinite M200 multimode microplate reader (Tecan Ltd, Minnedorf, Switzerland). After the initial reading, 100 μl of Stop & GloR Reagent (Promega) were dispensed into tested wells and Renilla luciferase levels were tested. The assay was completed after Luciferase levels were normalized to Renilla levels.
SAMD9 promoter activity was first analyzed using a luciferase reporter assay in HeLa cells. […]

SAMD9 promoter [2] = experiment: High-throughput luciferase reporter screen in HeLa line stably expressing 585 bp SAMD9 promoter fragment; settings: IFN-γ 10 ng/ml for 24 hours (FIG. 1B)
SAMD9 promoter [3] = experiment: as above; settings: Homo sapiens, HeLa; fold increase in promoter activity by luciferase assay vs cells treated with vehicle only; test drugs 10 μM, 24 hours; read-out: SAMD9 expression fold change in HeLa reporter assay
Description: HeLa cell lines stably expressing the constructs were generated under neomycin selection. Briefly, pGL4.17 containing a SAMD9 promoter fragment spanning 585 bp upstream to the TSS and an empty pGL4.17 vector were transfected into HeLa cells. Forty eight hours after transfection, standard medium was replaced with medium containing 600 μg/ml G418 (Sigma-Aldrich), cells were kept under G418 selection and the selective medium was replaced approximately every 2-3 days. After two passages, colonies of stable cells were isolated, expanded and frozen for further use.
Test drugs were dispensed at a concentration of 10 μM by a robotic system into 96-well plates containing 9000 cells/well expressing the pGL4.17 reporter construct carrying a 585 bp SAMD9 promoter fragment operably linked to luciferase gene or the empty pGL4.17 luciferase construct (Promega cat. no. E6721). Medium was removed after 24 hours and the cells subjected to Steady-Glo luciferase lysis-substrate solution assay (Promega) as described above. Liquid handling was done with the Tecan (Tecan) Freedom 150 (Robotic & MCA liquid Handling System) and the luciferase reading was done with a robot integrated Tecan Infinite® M1000 reader.
This cell line was then used to robotically screen a total of 1496 compounds obtained from the National Cancer Institute Diversity Set III and Oncology Drugs Set III small molecule libraries.

SAMD9 = SAMD9 RNA expression by qRT-PCR in HeLa cells; settings: fold increase in RNA gene expression vs cells treated with vehicle only
Description: HeLa cells were cultured in DMEM 4.5 g/l glucose medium containing 10% FCS, 1% L-glutamine and 1% penicillin and streptomycin (Biological Industries) and grown at 37° C. and 5% CO2.
Of note, when cells were incubated with CaCx and ApDx (NCI, MA USA), they were grown in the appropriate medium with 0.1% FCS only.
RNA was extracted from cell cultures using an RNA extraction kit (Roche Diagnostics, Mahheim, Germany). cDNA was synthesized from 500 ng of total RNA using the Verso cDNA kit (Thermo Fisher Scientific, Waltham, MA, USA). cDNA PCR amplification was carried out using the Fast SYBR Green Master Mix in a StepOnePlus™ Real-Time PCR System (Applied Biosystems, Foster City, CA, USA) with gene-specific intron-crossing oligonucleotide pairs listed in Table 1 (below). For quantification, standard curves were obtained using serially diluted cDNA amplified in the same qRT-PCR run. The melting temperature (Tm) of the amplified products was measured to confirm the specificity of the reaction conditions. Cycling conditions were as follows: 95° C. for 10 minutes, 95° C. for 10 seconds, 62° C. for 15 seconds, and 72° C. for 25 seconds for a total of 40 cycles. Each sample was analyzed in triplicate. mRNA expression level for target gene was normalized to GAPDH. The results are based the amount of target, normalized to an endogenous reference (IACTB) and relative to a calibrator, as calculated by 2-ΔΔCT. All samples were run in triplicate. The expression levels of target genes were expressed as mRNA relative units.
The potential ability of these 31 molecules to induce SAMD9 expression in cell cultures was then scrutinized.

| Compound | SAMD9 promoter activity (luciferase) (SAMD9 promoter [1]) | Response of stable SAMD9 promoter-luciferase HeLa cell line (SAMD9 promoter [2]) | fold induction at 10 µM (SAMD9 promoter [3]) | SAMD9 expression fold change in HeLa cells (SAMD9) |
| --- | --- | --- | --- | --- |
| IFN-γ: interferon-gamma, previously identified as a strong inducer of SAMD9 expression | significantly induced | respond robustly |  |  |
| COc1cccc2c1C(=O)c1c(O)c3c(c(O)c1C2=O)C[C@@](O)(C(C)=O)C[C@@H]3O[C@H]1C[C@H](N(Cc2ccccc2)Cc2ccccc2)[C@H](O)[C@H](C)O1 [Compound 268242, N,N-Dibenzyldaunorubicin hydrochloride] |  |  | 4.84 | 3.66 fold |
